SMILES strings stand for the structures.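 Five compound concentrations were applied to cells in 96-well plates for 48 hours; endpoints were derived by simple linear interpolation of the resulting dose-response curve. TGI is the concentration that stops growth completely.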

Assay in all cases: NCI anticancer screen, dose series, 48 h
Assay [1] concerns KM12 colon.
For assay [2], the system named is HOP-62 NSCLC.
Assay [3] deals with MDA-MB-435.
Assay [4] relates to T-47D breast.
In assay [5] the test system is RPMI-8226 leukemia.
In assay [6] the test system is HT29 colon.
In assay [7] the test system is U251 CNS.
In assay [8] the test system is OVCAR-8 ovarian.
Assay [9] deals with ACHN renal.
Assay [10] deals with PC-3 prostate.

With `NC(Cc1ccc(S(=O)(=O)O)cc1)C(=O)NC(Cc1ccc(S(=O)(=O)O)cc1)C(=O)O` (configuration not stated), the TGI in assay [1], in [2], in assay [3], in assay [4], in assay [5] and in assay [6] was over 100 µM each time. Besides, the TGI in assay [7], in assay [8], in [9] and in assay [10] was over 100 µM in each case.

On to `Cc1ccc(NC(=O)C(=O)CC(=O)c2sc(Nc3c(C)cccc3C)nc2C)cc1C`, for which the TGI in [1], in [2], in assay [3], in assay [4], in [5] and in [6] was over 100 µM throughout. For the same compound, the TGI in assay [7], in assay [8], in assay [9] and in assay [10] was over 100 µM each time.

Take `C[Si](C)(C)C1=C([Si](C)(C)C)C(Cl)(Cl)C1=O`: the TGI in [1] is 18.9 µM; in assay [2], 41.4 µM; in assay [3] it was 7.22 µM; in assay [4] it was 6.35 µM; in assay [5], 3.99 µM; in [6], 13.7 µM. Further, the TGI stood at 11.3 µM in [7], 9.78 µM in [8], 4.9 µM in assay [9] and 12.9 µM in assay [10].

Consider `C[C@H](C/C=C/C(C)(C)O)[C@H]1CC[C@@]2(C)[C@@H]3CC[C@H]4C(C)(C)[C@@H](O)CC[C@@]45C[C@@]35CC[C@]12C`, for which the TGI in [1] is 77.4 µM; in assay [2], 33.6 µM; in assay [3], 50.7 µM; in assay [4], 49.7 µM; in assay [5], 52.8 µM; in assay [6], over 100 µM. Besides, the TGI in assay [7] is 53.8 µM; in [8], 33.4 µM; in [9], 18.9 µM; in assay [10], 65.1 µM.

Take `CC(=O)Oc1ccc(/C=C/C(=O)O[C@@H](C(=O)O)[C@@H](OC(=O)/C=C/c2ccc(OC(C)=O)c(OC(C)=O)c2)C(=O)O)cc1OC(C)=O`: the TGI in assay [1], in [2], in assay [3], in assay [4], in [5] and in assay [7] was over 100 µM throughout. The TGI in [8], in assay [9] and in assay [10] was over 100 µM each time.

Regarding `S=C(Nc1ccc2cn[nH]c2c1)Nc1ccc2cn[nH]c2c1`, the TGI in assay [1], in [2], in assay [3], in [4], in assay [5] and in assay [6] was over 100 µM in each case. In addition, the TGI in [7], in assay [8], in assay [9] and in assay [10] was over 100 µM throughout.

Take `CC(C)(C)OC(=O)NCCCCC(NC(=O)c1ccccc1)C(N)=O` (configuration not stated): the TGI in [1], in [2], in [3], in [4], in assay [5] and in assay [6] was over 100 µM each time. Also, the TGI in [7], in assay [8], in [9] and in assay [10] was over 100 µM throughout.

`COC(=O)c1ccc(Nc2nc3nc[nH]c3c(=O)[nH]2)cc1`: the TGI in assay [1], in assay [2], in assay [3], in assay [4], in assay [5] and in assay [6] was over 100 µM throughout. For the same compound, the TGI in assay [7], in assay [8], in assay [9] and in [10] was over 100 µM throughout.

For `Cc1nc2c(=S)n(C)ncc2[nH]1`, the TGI in assay [1], in [2], in assay [3], in [4], in assay [5] and in assay [6] was over 100 µM in each case. The TGI in assay [7], in [8], in assay [9] and in [10] was over 100 µM in each case.

For the compound `CCOC(=O)C1=COC(C)(CCc2ccccc2)CC1=O` (configuration not stated), the TGI in [1], in [2], in assay [3], in assay [4], in assay [5] and in assay [6] was over 100 µM each time. Further, the TGI in assay [7], in assay [8], in assay [9] and in assay [10] was over 100 µM in each case.

With `COc1ccc(/C=N/n2cnc3[nH]c(C)c(Cc4ccccc4)c3c2=N)cc1`, the TGI in assay [1], in [2], in [3], in assay [4], in assay [5] and in assay [6] was over 100 µM throughout. The TGI in [7], in assay [8], in assay [9] and in assay [10] was over 100 µM in each case.

For `CC(=N\N)/C(C)=N/N=C(C)/C(C)=N/N=C(C)/C(C)=N/N`, the TGI in assay [1], in assay [2], in assay [3], in assay [4], in [5] and in [6] was over 100 µM each time. The TGI in assay [7], in assay [8], in assay [9] and in assay [10] was over 100 µM throughout.

With `CCN(CC)c1ccc(/C=C/C=C2C(=O)NC(=S)NC2=O)cc1`, the TGI in assay [1] was over 100 µM; in [2] it was 47.9 µM; in assay [3], 34.7 µM; in assay [4], over 100 µM; in assay [5], over 100 µM; in assay [6] it was over 100 µM. For the same compound, the TGI in [7] was over 80.8 µM; in [8] it was 42.4 µM; in assay [9], over 100 µM; in [10], over 100 µM.

On to `CN(C)c1cccc(NC2=NCCO2)c1`, for which the TGI is 78.6 µM in assay [1]; over 100 µM in assay [2]; 42.9 µM in [3]; over 100 µM in assay [4]; over 100 µM in assay [5]; 47.4 µM in assay [6]. The TGI in [7], in assay [8], in [9] and in assay [10] was over 100 µM each time.

For `O=[N+]([O-])c1ccc(O)c(/C=N/NC(=S)N2CCCCC2)c1`, the TGI is 40 µM in [1]; over 100 µM in [2]; over 83 µM in assay [3]; over 80.1 µM in [4]; over 52.4 µM in assay [5]; 15 µM in assay [6]. Moreover, the TGI is 90.3 µM in assay [7], 4.66 µM in assay [8], 6.97 µM in [9] and over 92.7 µM in [10].

Take `C(=C\N1CCCCC1)/c1nnnn1-c1ccccc1`: the TGI in assay [1] is over 100 µM; in assay [2], over 100 µM; in [3], 66.1 µM; in [4], 76.3 µM; in assay [5], 59.6 µM; in assay [6], over 100 µM. For the same compound, the TGI in [7] was 80.3 µM; in assay [8], 95 µM; in assay [9], over 100 µM; in assay [10], over 100 µM.

Turning to `CCOC(=O)Oc1ccc2c(c1)c(=O)c1c(NCCN(CC)CC)ccc3nnn2c31`, the TGI came out at 14.9 µM in [1]; 7.22 µM in [2]; 16.4 µM in assay [3]; 29.2 µM in [4]; 4.86 µM in [5]; 11.7 µM in [6]. Also, the TGI in assay [7] is 17 µM; in assay [8] it was 14.3 µM; in [9], 11.6 µM; in assay [10], 15.1 µM.

In the case of `Cn1c(N/N=C/c2ccccc2)nc(-c2ccc([N+](=O)[O-])cc2)c(C#N)c1=O`, the TGI in assay [1], in assay [2], in assay [3], in assay [4], in assay [5] and in [6] was over 100 µM throughout. Besides, the TGI in [7], in assay [8], in assay [9] and in assay [10] was over 100 µM in each case.

With `CCn1c(SCC(=O)NNC(=S)NC)nc2ccccc2c1=O`, the TGI in [1], in assay [2], in [3], in assay [4], in assay [5] and in assay [7] was over 100 µM throughout. Moreover, the TGI in assay [8], in assay [9] and in [10] was over 100 µM each time.

Take `CC1C(c2ccc(Cl)cc2)c2cc3c(cc2OC1N1CCOCC1)OCO3` (configuration not stated): the TGI in assay [1], in assay [2], in [3], in assay [4], in assay [5] and in assay [6] was over 100 µM in each case. Besides, the TGI in assay [8], in assay [9] and in assay [10] was over 100 µM each time.

Values taken from PubChem BioAssay (NCI).
